Series [1] concerns Acinetobacter baumannii ATCC 17978. Nature of the series: Bacterial adherence assay on human bronchial epithelial NCI-H292 cells. The format is cell-based. How it is done:
Bacterial adherence assay was performed as described ([…]; herein incorporated by reference in its entirety). Human bronchial epithelial cell line NCI-H292 (ATCC CRL-1848; American Tissue Culture Collection, Rockville, Md., USA) were cultured in a petri dish at 37° C. in RPMI 1640 medium (Gibco BRL, Grand Island, N.Y., USA), supplemented with 25 mM HEPES, 2 mM L-glutamine, penicillin G 100,000 U/L, streptomycin 50 mg/L and 10% (v/v) of fetal bovine serum (Gibco BRL), in a humidified atmosphere containing 5% (v/v) of CO2.
When NCI-H292 cells covered about 80% of the bottom of petri dish, the medium was replaced with 0.25% trypsin-EDTA (1689649, MP Biomedicals, Solon Ohio) and the petri dish was incubated at 37° C. for 10 min. NCI-H292 Cells were collected by cell scraper and washed with fresh RPMI 1640 medium three time by centrifuging at 300×g for 3 min. Washed cells were adjusted to the concentration of 1×10^5 cells per ml with fresh RPMI 1640 and 2 ml of cell solution were transferred to each well of a 12-well plate, which contained a 13-mm-diameter plastic coverslip (Thermanox, Nunc, Rochester, N.Y., USA) in each well. The cells were incubated at 37° C. for about 3 days until cells covered about 90% of coverslip and were then washed with phosphate buffered saline (PBS) three times. Acinetobacter baumannii ATCC 17978 grown overnight in Luria Bertani (LB) medium were collected and washed three times with fresh RPMI 1640 medium by centrifuging at 6,000 rpm for 3 min. Bacterial cells were adjusted to the concentration of 1×10^8 CFU/mL (OD600=0.05) and mixed with reagents (400 μM of dATP, or 200 mU/ml of apyrase) as necessary. Each cell monolayer was infected with 1 mL of bacterial suspension and incubated for 60 min at 37° C. in a CO2 5% v/v atmosphere. For damaged cell assays, NCI-H292 cells (around 5%) in the central area of plastic coverslips were damaged by tip of a knife before the infection performed. […] The number of bacteria adhering to 100 cells was determined. […]

Series [2] concerns S. aureus. Nature of the series: Biofilm formation, crystal violet staining in 96-well plates. Type of series: cell-based. Conditions: 400 μM dATP. How it is done: (§1) Overnight LB-grown culture was diluted 100 times with 10% LB medium, and 100 μL of the dilution was inoculated into each well of 96-well plates. dATP, dGTP, DNase I, or apyrase was added into wells to result in the desired concentrations. An equivalent volume of 10% LB medium was added into wells as control. Plates were covered with lids and incubated at 30° C. for 16 hours before optical density (OD) was measured at 600 nm for the record of growth. Fifteen microliters of 0.1% crystal violet solution was added into each well for crystal violet staining (CV staining) After 15 min of staining, each well was washed gently three times with 100 μl of PBS buffer. Supernatant in each well was removed and 100 μl of 75% ethanol was added to dissolve crystal violet before measuring optical density at 600 nm (CV OD) for the quantification of biofilm biomass.

Series [3] deals with S. maltophilia. The series is described as above. Type of series: cell-based. Conditions: 400 μM dATP. How it is done: as §1
For series [4], the system named is Acinetobacter biofilms. Nature of the series: Biofilm biomass, crystal violet staining in 96-well plates. The note with it: 16 hours incubation. The format is cell-based. How it is done: as §1
(§2) For visualization of biofilm structure (FIG. 2), biofilms were developed as described above. After 16 hours of incubation, supernatant was removed from each well and 100 μl of PBS buffer containing 0.1 mM SYTO-9 green, 10 mM Propidium Iodide (PI) was added for staining in dark for 15 min. Cell images were acquired with a Perkin Elmer UltraView confocal microscope system equipped with an Argon-Krypton laser. Images were taken with an oil immersion 60× objective lens in two channels (488 nm excitation for SYTO9 and 568 nm excitation for PI). […]

In series [5] the test system is Acinetobacter. Nature of the series: Bacterial initial attachment assay. Type of series: cell-based. The note with it: 125 μM dATP; visualized at 2 h, 4 h and 8 h post-treatment. How it is done: Bacterial initial attachment assay: 1% of an overnight culture was inoculated into the wells of 96-well glass bottom microplate containing 100 μl of 10% LB media, after predetermined incubation time, suspension was removed from each well and rinsed with PBS buffer for three times then biofilm samples were stained with LIVE/DEAD BacLight Bacterial Viability Kits (cat. L7007, Invitrogen) following the instructions in the manual. All microscopic observations and image acquisitions were performed with Olympus IX71 equipped with detectors and filter sets for monitoring of SYTO-9 and propidium iodide (PI). Images were obtained using a 60× objective.

In series [6] the test system is Acinetobacter. The series can be described thus: Extracellular DNA (eDNA) extraction and quantification. The format is cell-based. How it is done:
DNA extraction and quantification: Biofilms were developed as mentioned above for 16 hours and biofilm cells were resuspended with 0.9% NaCl solution, homogenized for 1 min and utilized for eDNA extraction. Planktonic cells were incubated at 30° C. for 8 hours with a 1% of inoculation and cells were washed with fresh 10% of LB broth three times before resuspension in the same volume of 10% of LB broth or 10% LB broth supplemented with 400 μM of dATP. The cells solutions were then incubated at 30° C. for another 2 hour and were ready for eDNA extraction. Biofilm cells suspension and planktonic cultures were treated as previously reported (27) for DNA extraction. Briefly, cell solution was treated with Dispersin B (20 μg/ml) at 37° C. for 30 min followed by treatment of proteinase K (5 μg/ml) for another 30 min at 37° C. Treated cell solution was filtered through a 0.2 μm syringe filter (PES, Water & Process Technologies), elute was used to extract the extracellular DNA by using ethanol precipitation. DNA was dissolved in 50 μl of sterile MilliQ water and the concentration of DNA was measured by using the PicoGreen dsDNA Quantitation Kit (Molecular Probes, Invitrogen).

In series [7] the test system is E. coli. The series can be described thus: Biofilm formation, crystal violet staining in 96-well plates. The format is cell-based. Conditions: 400 μM dATP. How it is done:
as §1, §2

Series [8] relates to Acinetobacter cultures. Nature of the series: CytoTox-Glo cytotoxicity assay (programmed cell death). Type of series: cell-based. Conditions: 24 h post-treatment. The text has this:
Cytotoxicity Assay: Planktonic cells and biofilm cells were collected as described above and washed with PBS buffer three times. Cell concentration was adjusted to 1-1.5×10^8 CFU/ml with PBS buffer and samples were ready for dead-cell protease activity, which had been released from cells that had lost membrane integrity, by using CytoTox-Glo™ Cytotoxicity Assay (Cat. G9291. Promega. Madison, Wis.) following the instructions by the manufacturer.

The subject of series [9] is Acinetobacter baumannii. Nature of the series: Acinetobacter baumannii adherence in mouse wound infection model. Type of series: in vivo, C57BL/6 mice. Conditions: burn wound sites treated with 400 mU/mL apyrase during inoculation. How it is done: Female pathogen-free C57BL/6 mice (Harlan, Indianapolis, Ind.), 12 weeks old, weighing approximately 20-23 grams were used in all experiments. Mice were housed in standard cages at the University Laboratory Animals Facility and were allowed to acclimate for 7 days after delivery prior to the experiment. The animals were kept on a 12 hour light cycle and were provided with rodent chow (LabDiet 5001, PMI Int'l., Richmond, Ind.) and water ad libitum throughout the study.
Pentobarbital (Nembutal, Ovation Pharmaceuticals, Inc., Deerfield, Ill., manufactured by Hospira, Lake Forest, Ill.) was administered intraperatonially (50 mg/kg IP) for anesthesia. During the study, all mice were singly housed and all received 0.1 mg/kg buprenorphine (Buprenex; Reckitt Benckiser Pharmaceuticals Inc., Richmond, Va.) subcutaneously (SQ) twice daily for post-burn pain control.
The skin over the lumbrosacral and back region was clipped using a 35-W model 5-55E electrical clipper (Oyster-Golden A-S, Head no. 80, blade size 40). Depilatory cream (Nair® lotion) was applied for about 1.5 minutes, then wiped off with a damp paper towel. Skin was rinsed under the faucet in lukewarm water and then blotted dry.
The first buprenorphine dose (67 ul/20 g, 83 ul/25 g mouse or 0.1 ug/g) was administered SQ under the skin of the upper back.
All 8 mice were burned. […]

Take `Nc1ncnc2c1ncn2[C@H]1C[C@H](O)[C@@H](COP(=O)(O)OP(=O)(O)OP(=O)(O)O)O1` [dATP, deoxyadenosine triphosphate]: the “aggregate formation on human bronchial epithelial cells” value in series [1] (400 μM dATP in media) is on record as “promoted aggregate formation”. The “increase of A. baumannii adherence to human bronchial epithelial cells” value in series [1] (400 μM dATP in media, 1 hour after incubation) is reported as “about 100 fold”. For the same compound, the biofilm formation entry in series [2], in [3] and in [7] was “increased biofilm formation” each time. Also, the biofilm biomass entry in series [4] is “stimulated biofilm biomass”. Besides, in [5], the “rates of attachment in initial biofilm formation” value was “accelerated rates of attachment”. Further, the “extracellular DNA (eDNA) release” value in series [6] (biofilm cultures, more pronounced effect than in planktonic) is “Stimulation of extracellular DNA (eDNA)”; in series [6] (planktonic cultures), “Stimulation of extracellular DNA (eDNA)”. The “programmed cell death (Cytotox-glo)” value in [8] (biofilm form) and in [8] (planktonic form) was “increased levels of programmed cell death” throughout.
apyrase: the “effect on increased bacterial adherence (dATP or damaged cells)” value in series [1] (Apyrase 200 mU/ml) is recorded as “completely arrested”. Besides, the “adherence during initial stages of biofilm formation, cell count per gram of skin tissue” value in [9] is “decreased adherence”. Moreover, the biofilm biomass entry in series [4] is on record as “reduced biomass”.

For the origin of these results see patent publication US20140205586A1, “CONTROL OF BIOFILM FORMATION” (THE REGENTS OF THE UNIVERSITY OF MICHIGAN, priority 2010, published 2014).
